Laboratory results from article PMC5623190, “Target Identification of Mycobacterium tuberculosis Phenotypic Hits Using a Concerted Chemogenomic, Biophysical, and Structural Approach” (Frontiers in Pharmacology, 2017).
Converted amounts (≈) assume the structure as drawn. “And” between values parts separate entries of the source, which are not always exact repeats. Identical values can stand only once. Like-named read-outs stand apart in the source and are kept apart here.

Columns and labels:
[1] = biological target: M. tuberculosis EthR (Mycobacterium tuberculosis, UniProt P9WMC1); assay: Surface plasmon resonance assay of EthR binding to ethA promoter DNA; conditions: for LE (ligand efficiency): ligand efficiency for EthR inhibition
M. tuberculosis EthR, sequence (P9WMC1 whole entry, looked up): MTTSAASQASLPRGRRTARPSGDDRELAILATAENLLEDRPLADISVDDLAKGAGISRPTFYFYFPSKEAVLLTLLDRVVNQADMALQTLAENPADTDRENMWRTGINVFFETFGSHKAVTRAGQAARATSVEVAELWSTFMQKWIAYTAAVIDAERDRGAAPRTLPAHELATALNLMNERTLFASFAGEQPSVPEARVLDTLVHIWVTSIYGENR
Procedure: The surface plasmon resonance (SPR) assay was performed on a BIAcore T100 with a protocol similar to what was previously described (Surade et al., [2014]). […] For the initial screening a single run was performed for each compound. A 2 μM EthR solution was then incubated individually with each of the compounds at 100 μM, in 2 mM MgCl2, 10 mM TRIS/HCL pH 7.5, 200 mM NaCl, 0.1 mM EDTA, and 2% DMSO and flowed over the chip at 20 μl/min for 120 s. For dissociation 150 s were given using the same flow rate. Binding was determined by subtracting the response of the control channel from the experimental channel at steady-state. Regeneration of the chip was performed between samples by flowing 0.03% SDS in running buffer for 60 s at 20 μl/min. […] Data were analyzed in Prism 5 (Graphpad software) and IC50 were calculated using a non-linear regression model. Dose response experiments were performed in triplicate.

[2] = tested on: Mycobacterium tuberculosis H37Rv; design: method as in Ballell et al., 2013; conditions: M. tuberculosis whole cell; ref Ballell et al., 2013; cited from earlier work
[3] = biological target: InhA (Mycobacterium tuberculosis, UniProt P9WGR1); assay: InhA spectrophotometric enzymatic assay (NADH oxidation, 2-trans-octanoyl-CoA); format: biochemical; conditions: compound at 100 μM, 100 nM InhA, triplicate
InhA, sequence (P9WGR1 whole entry, looked up): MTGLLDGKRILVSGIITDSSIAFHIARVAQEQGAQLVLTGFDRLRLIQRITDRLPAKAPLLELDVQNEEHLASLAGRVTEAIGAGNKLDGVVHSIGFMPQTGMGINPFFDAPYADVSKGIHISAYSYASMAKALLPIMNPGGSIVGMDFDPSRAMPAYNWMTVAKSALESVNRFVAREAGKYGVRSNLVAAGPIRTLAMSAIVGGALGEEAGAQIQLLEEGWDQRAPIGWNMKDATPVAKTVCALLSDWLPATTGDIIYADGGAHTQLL
Procedure: InhA activity was assessed by a spectrophotometric assay that followed the oxidation of NADH at λ = 340 nm in the presence of 2-trans-octanoyl-CoA. Compounds were dissolved in 100% DMSO. The enzyme reaction contains 30 mM PIPES pH 7.5, 50 mM NaCl, 1% (v/v) DMSO and 0.1 mM EDTA. InhA (100 nM) was pre-incubated for 10 min at room temperature with 0.25 mM NADH and compounds at a final concentration of 100 μM in 150 μl reaction volume. The reaction is started by the addition of 2-trans-octanoyl-CoA at a final concentration of 1.5 mM, prepared as described previously (He et al., [2006]). The reactions were followed for 20 min using a spectrophotometer plate reader (CLARIOstar—BMG LABTECH). Inhibition percentage was calculated based on the initial rates of reaction. All experiments were performed in triplicate.

[4] = inhibition of EthR binding to ethA promoter DNA
[5] = IC50, SPR dose response 0.78-100 μM, triplicate, table head prints no unit, μM
[6] = SPR dose response 0.78-100 μM, triplicate, table head prints no unit, μM, read-out: IC50

SMILES	inhibition at 100 µM [1]	IC50 [1, 5]	LE (ligand efficiency) [1]	MIC [2]	also measured
Br.CC1(C)NC(N)=NC(=N)N1OCCCOc1ccc(Cl)cc1Cl [BRL-51091am]					SPR Inhibition (%) [1, 4]: 41%
O=C(NC1=NCCS1)c1sc2cc(F)ccc2c1Cl [Compound 1]	100%	~12 µM and 12 µM	0.35	8.6 µM (≈ 2.71 µg/mL)	
O=C(Cc1ccc(F)cc1)Nc1nc(-c2ccccn2)cs1 [Compound 2]	100%	9.9 µM	0.31	9.3 µM (≈ 2.91 µg/mL)	
O=C(C1CCN(c2nnc(-n3cccc3)s2)CC1)N1CCC(Cc2ccccc2)CC1 [Compound 3]	100%	3.9 µM	0.24	4.2 µM (≈ 1.83 µg/mL)	
c1ccc(-c2csc(Nc3nc4cc5c(cc4s3)OCO5)n2)nc1 [Compound 4]			0.28	2.7 µM (≈ 0.957 µg/mL)	IC50 [1, 6]: ~13 µM and 13 µM; Inhibition (100 μM) (%) ([1]; SPR, inhibition of EthR binding to DNA, compound at 100 μM, 2 μM EthR, single run): 100%
Clc1ccc(Nc2nc(-c3ccccn3)cs2)nc1 [Compound 5]	99%			5.9 µM (≈ 1.7 µg/mL)	
Fc1ccc2nc(Nc3nc(-c4ccccn4)cs3)sc2c1 [Compound 6]	97%	22 µM	0.30	2.3 µM (≈ 0.755 µg/mL)	
O=C(COc1cccc(F)c1)Nc1nc(-c2ccccn2)cs1 [Compound 7]	93%		0.26		IC50 [1, 6]: 50 µM
CCc1ccc(Nc2nnc(SCc3cc(C)on3)s2)cc1 [Compound 8]	92.8%			2.8 µM (≈ 0.931 µg/mL)	inhibition at 100 µM [3]: > 40%
CSc1ccc(C(=O)Nc2nc(-c3ccccn3)cs2)cc1 [Compound 10]	74%			8.7 µM (≈ 2.85 µg/mL)	
Nc1ccccc1Nc1ccc2c(c1)OCO2 [Compound 12]	67%			1.8 µM (≈ 0.411 µg/mL)	IC50 ([1]; SPR IC50 (µM), inhibition of EthR binding to ethA promoter DNA): > 100 µM
N=C(Nc1nc(-c2ccccn2)cc2ccccc12)c1cccc(Cl)c1 [GSK381407a]					SPR Inhibition (%) [1, 4]: 59%
CCCCS(=O)(=O)Nc1ccc2cnn(C)c2c1 [GSK3011724a]					SPR Inhibition (%) [1, 4]: 28%
